Assays:
[1] = target: benzodiazepine modulatory unit of the GABAA receptor complex; experiment: In vitro inhibition of 3H-flunitrazepam (3H-FNM) binding; conditions: inhibition of specific 3H-FNM (1 nM) binding, rat cerebral cortex membranes, 40 min at 2° C.
Procedure: In Vitro Inhibition of ^3H-flunitrazepam (^3H-FNM) Binding
The GABA recognition site and the benzodiazepine modulatory unit can selectively be labelled with ^3H-flunitrazepam.
Preparations are performed at 0-4° C. unless otherwise indicated. Cerebral cortex from male Wistar rats (150-200 g) is homogenised for 5-10 sec in 20 ml Tris-HCl (30 mM, pH 7.4) using an Ultra-Turrax homogeniser. The suspension is centrifuged at 27,000×g for 15 min and the pellet is washed three times with buffer (centrifuged at 27,000×g for 10 min). The washed pellet is homogenized in 20 ml of buffer and incubated on a water bath (37° C.) for 30 min to remove endogenous GABA and then centrifuged for 10 min at 27,000×g. The pellet is then homogenized in buffer and centrifuged for 10 min at 27,000×g. The final pellet is resuspended in 30 ml buffer and the preparation is frozen and stored at −20° C.
The membrane preparation is thawed and centrifuged at 2° C. for 10 min at 27,000×g. The pellet is washed twice with 20 ml 50 mM Tris-citrate, pH 7.1 using an Ultra-Turrax homogeniser and centrifuged for 10 min at 27,000×g. The final pellet is resuspended in 50 mM Tris-citrate, pH 7.1 (500 ml buffer per g of original tissue), and then used for binding assays. Aliquots of 0.5 ml tissue are added to 25 μl of test solution and 25 μl of ^3H-FNM (1 nM, final concentration), mixed and incubated for 40 min at 2° C. Non-specific binding is determined using Clonazepam (1 μM, final concentration). After incubation the samples are added 5 ml of ice-cold buffer and poured directly onto Whatman GF/C glass fibre filters under suction and immediately washed with 5 ml ice-cold buffer. The amount of radioactivity on the filters is determined by conventional liquid scintillation counting. Specific binding is total binding minus non-specific binding.
25-75% inhibition of specific binding must be obtained, before calculation of an IC50.
The test value will be given as IC50 (the concentration (μM) of the test substance which inhibits the specific binding of ^3H-FNM by 50%).
Co is specific binding in control assays, and […]

| SMILES | melting point [°C] | IC50 [1] [nM] |
| --- | --- | --- |
| COc1ccc2c(c1)ncn2-c1cccc(N2CCN(C(C)=O)CC2)c1 | 157 |  |
| CC(=O)N1CCN(c2cccc(-n3cnc4cc(C(C)C)ccc43)c2)CC1 [Compound 38, 1-{4-[3-(5-Isopropyl-benzoimidazol-1-yl)-phenyl]-piperazin-1-yl}-ethanone] |  | 5 |
| CC(=O)N1CCN(c2cccc(-n3cnc4cc(C(C)O)ccc43)c2)CC1 (stereo not shown) [Compound 33, 1-(4-{3-[5-(1-Hydroxy-ethyl)-benzoimidazol-1-yl]-phenyl}-piperazin-1-yl)-ethanone] | 126 | 9.6 |
| CC(=O)N1CCN(c2cccc(-n3cnc4cc(C)ccc43)c2)CC1 [Compound 23, 1-{4-[3-(5-Methyl-benzoimidazol-1-yl)-phenyl]-piperazin-1-yl}-ethanone] | 145 to 146 | 2.6 |
| CC(=O)N1CCN(c2cccc(-n3cnc4cc(C(F)(F)F)ccc43)c2)CC1 | 143 to 146 |  |
